Biological target: T1, CFTR (Homo sapiens, UniProt P13569, DEL508-508)
T1 construct: Primary CF airway epithelial cells were obtained from the UNC Cystic Fibrosis Tissue Procurement and Cell Culture Core; host or cells: primary CF airway epithelial cells, differentiated at the air-liquid interface
Assay: Equivalent current assay in primary CF airway epithelial cells (NAUC, combination with 1st site corrector FDL169 or VX-809)
Type: cell-based
Settings: 37° C., 24 h; for Nauc @ 1 μM: test compound 1 μM in combination with 1st site corrector VX-809 (3 μM); for Nauc @ 3 μM: test compound 3 μM in combination with 1st site corrector VX-809 (3 μM); for Nauc @ 10 μM: test compound 10 μM in combination with 1st site corrector VX-809 (3 μM)

T1 sequence (P13569 with tags, fused parts or gaps DEL508-508): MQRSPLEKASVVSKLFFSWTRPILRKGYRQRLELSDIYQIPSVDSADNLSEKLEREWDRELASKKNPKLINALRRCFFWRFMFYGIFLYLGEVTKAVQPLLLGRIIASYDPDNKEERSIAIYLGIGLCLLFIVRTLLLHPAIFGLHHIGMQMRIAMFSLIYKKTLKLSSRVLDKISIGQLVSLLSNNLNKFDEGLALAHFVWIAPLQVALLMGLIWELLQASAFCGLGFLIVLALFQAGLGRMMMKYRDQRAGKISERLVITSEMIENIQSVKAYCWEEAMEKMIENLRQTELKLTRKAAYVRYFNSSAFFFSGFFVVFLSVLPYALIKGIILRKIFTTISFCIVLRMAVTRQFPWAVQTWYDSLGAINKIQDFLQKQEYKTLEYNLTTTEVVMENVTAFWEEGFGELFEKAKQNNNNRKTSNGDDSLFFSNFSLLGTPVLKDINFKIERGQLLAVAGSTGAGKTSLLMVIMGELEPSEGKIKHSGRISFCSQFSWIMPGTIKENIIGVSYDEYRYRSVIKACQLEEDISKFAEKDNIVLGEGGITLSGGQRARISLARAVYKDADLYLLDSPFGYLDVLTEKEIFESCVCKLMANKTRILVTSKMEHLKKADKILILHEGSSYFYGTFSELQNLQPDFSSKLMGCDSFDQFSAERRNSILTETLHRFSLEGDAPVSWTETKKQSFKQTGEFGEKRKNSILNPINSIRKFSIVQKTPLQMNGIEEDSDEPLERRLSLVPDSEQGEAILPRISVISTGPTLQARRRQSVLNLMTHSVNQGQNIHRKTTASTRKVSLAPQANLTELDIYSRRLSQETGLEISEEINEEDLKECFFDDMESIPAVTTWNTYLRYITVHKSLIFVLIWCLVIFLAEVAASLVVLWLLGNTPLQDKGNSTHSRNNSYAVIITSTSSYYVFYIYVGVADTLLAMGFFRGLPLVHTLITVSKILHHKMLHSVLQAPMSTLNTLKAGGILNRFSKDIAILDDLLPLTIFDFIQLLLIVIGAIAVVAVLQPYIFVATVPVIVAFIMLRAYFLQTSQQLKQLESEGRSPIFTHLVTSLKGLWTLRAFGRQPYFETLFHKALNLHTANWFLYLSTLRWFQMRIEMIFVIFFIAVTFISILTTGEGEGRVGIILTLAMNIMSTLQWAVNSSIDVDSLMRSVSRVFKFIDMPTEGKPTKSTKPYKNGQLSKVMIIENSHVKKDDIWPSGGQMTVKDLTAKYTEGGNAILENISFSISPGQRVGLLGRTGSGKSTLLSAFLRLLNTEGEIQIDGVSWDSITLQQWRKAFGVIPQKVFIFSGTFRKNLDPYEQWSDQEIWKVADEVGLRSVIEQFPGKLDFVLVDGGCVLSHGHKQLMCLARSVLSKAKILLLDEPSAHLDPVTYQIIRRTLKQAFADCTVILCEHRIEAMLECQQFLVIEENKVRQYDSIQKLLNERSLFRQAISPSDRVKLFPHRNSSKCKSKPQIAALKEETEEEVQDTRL

For CN(O)C(=O)C1C(C(=O)Nc2cc(Cl)cc(Cl)c2)C2CCCN2C12C(=O)Nc1c(Cl)cc(Cl)cc12 (single isomer, unassigned) [Example 235a, 5,7-dichloro-N1′-(3,5-dichlorophenyl)-N2′-hydroxy-N2′-methyl-2-oxo-1′,2′,5′,6′,7′,7a′-hexahydrospiro[indoline-3,3′-pyrrolizine]-1′,2′-dicarboxamide], the “Nauc @ 1 μM” value was “++ (NAUC “++” refers to an observed NAUC 170-140% of positive control)”, the “Nauc @ 3 μM” value was “+++ (NAUC “+++” refers to an observed NAUC>170% of positive control)” and the “Nauc @ 10 μM” value was “+++ (NAUC “+++” refers to an observed NAUC>170% of positive control)”.
In the case of CN(O)C(=O)C1C(C(=O)Nc2cc(Cl)cc(Cl)c2)C2CCCN2C12C(=O)Nc1c(Cl)cc(Cl)cc12 (single isomer, unassigned) [Example 235b, 5,7-dichloro-N1′-(3,5-dichlorophenyl)-N2′-hydroxy-N2′-methyl-2-oxo-1′,2′,5′,6′,7′,7a′-hexahydrospiro[indoline-3,3′-pyrrolizine]-1′,2′-dicarboxamide], the “Nauc @ 1 μM” value is reported as “+++ (NAUC “+++” refers to an observed NAUC>170% of positive control)”, the “Nauc @ 3 μM” value is reported as “+++ (NAUC “+++” refers to an observed NAUC>170% of positive control)” and the “Nauc @ 10 μM” value is reported as “+++ (NAUC “+++” refers to an observed NAUC>170% of positive control)”.
Cn1cnc(NC(=O)[C@H]2[C@@H](C(=O)Nc3cc(Cl)cc(Cl)c3)[C@H]3CCCN3[C@]23C(=O)Nc2c(Cl)cc(Cl)cc23)c1 (single isomer, unassigned) [Example 237, (1′R,2′S,7a′R)-5,7-dichloro-N1′-(3,5-dichlorophenyl)-N2′-(1-methyl-1H-imidazol-4-yl)-2-oxo-1′,2′,5′,6′,7′,7a′-hexahydrospiro[indoline-3,3′-pyrrolizine]-1′,2′-dicarboxamide] was tested, and the “Nauc @ 1 μM” value was “+ (NAUC “+” refers to an observed NAUC <140% of positive control)”, the “Nauc @ 3 μM” value was “+ (NAUC “+” refers to an observed NAUC <140% of positive control)” and the “Nauc @ 10 μM” value was “++ (NAUC “++” refers to an observed NAUC 170-140% of positive control)”.
In the case of Cn1ccnc1NC(=O)[C@H]1[C@@H](C(=O)Nc2cc(Cl)cc(Cl)c2)[C@H]2CCCN2[C@]12C(=O)Nc1c(Cl)cc(Cl)cc12 (single isomer, unassigned) [Example 238, (1′R,2′S,7a′R)-5,7-dichloro-N1′-(3,5-dichlorophenyl)-N2′-(1-methyl-1H-imidazol-2-yl)-2-oxo-1′,2′,5′,6′,7′,7a′-hexahydrospiro[indoline-3,3′-pyrrolizine]-1′,2′-dicarboxamide], the “Nauc @ 1 μM” value is reported as “+ (NAUC “+” refers to an observed NAUC <140% of positive control)” and the “Nauc @ 3 μM” value is reported as “+ (NAUC “+” refers to an observed NAUC <140% of positive control)”.
Cn1nccc1NC(=O)[C@H]1[C@@H](C(=O)Nc2cc(Cl)cc(Cl)c2)[C@H]2CCCN2[C@]12C(=O)Nc1c(Cl)cc(Cl)cc12 (single isomer, unassigned) [Example 239, (1′R,2′ S,7a′R)-5,7-dichloro-N1′-(3,5-dichlorophenyl)-N2′-(1-methyl-1H-pyrazol-5-yl)-2-oxo-1′,2′,5′,6′,7′,7a′-hexahydrospiro[indoline-3,3′-pyrrolizine]-1′,2′-dicarboxamide] was tested, and the “Nauc @ 1 μM” value was “+ (NAUC “+” refers to an observed NAUC <140% of positive control)”, the “Nauc @ 3 μM” value was “+ (NAUC “+” refers to an observed NAUC <140% of positive control)” and the “Nauc @ 10 μM” value was “+ (NAUC “+” refers to an observed NAUC <140% of positive control)”.
With Cn1ccc(NC(=O)[C@H]2[C@@H](C(=O)Nc3cc(Cl)cc(Cl)c3)[C@H]3CCCN3[C@]23C(=O)Nc2c(Cl)cc(Cl)cc23)n1 (single isomer, unassigned) [Example 240, (1′R,2′S,7a′R)-5,7-dichloro-N1′-(3,5-dichlorophenyl)-N2′-(1-methyl-1H-pyrazol-3-yl)-2-oxo-1′,2′,5′,6′,7′,7a′-hexahydrospiro[indoline-3,3′-pyrrolizine]-1′,2′-dicarboxamide] the “Nauc @ 1 μM” value was “+ (NAUC “+” refers to an observed NAUC <140% of positive control)”, the “Nauc @ 3 μM” value was “+ (NAUC “+” refers to an observed NAUC <140% of positive control)” and the “Nauc @ 10 μM” value was “+ (NAUC “+” refers to an observed NAUC <140% of positive control)”.
With CON(C)C(=O)[C@H]1[C@@H](C(=O)Nc2cc(Cl)cc(Cl)c2)[C@H]2CCCN2[C@]12C(=O)Nc1c(Cl)cc(Cl)cc12 (single isomer, unassigned) [Example 241, (1′R,2′ S,7a′R)-5,7-dichloro-N1′-(3,5-dichlorophenyl)-N2′-methoxy-N2′-methyl-2-oxo-1′,2′,5′,6′,7′,7a′-hexahydrospiro[indoline-3,3′-pyrrolizine]-1′,2′-dicarboxamide] the “Nauc @ 1 μM” value was “++ (NAUC “++” refers to an observed NAUC 170-140% of positive control)”, the “Nauc @ 3 μM” value was “+++ (NAUC “+++” refers to an observed NAUC>170% of positive control)” and the “Nauc @ 10 μM” value was “++ (NAUC “++” refers to an observed NAUC 170-140% of positive control)”.
For CC(=O)NNC(=O)[C@H]1[C@@H](C(=O)Nc2cc(Cl)cc(Cl)c2)[C@H]2CCCN2[C@]12C(=O)Nc1c(Cl)cc(Cl)cc12 (single isomer, unassigned) [Example 242, (1′R,2′S,7a′R)-2′-(2-acetylhydrazine-1-carbonyl)-5,7-dichloro-N-(3,5-dichlorophenyl)-2-oxo-1′,2′,5′,6′,7′,7a′-hexahydrospiro[indoline-3,3′-pyrrolizine]-1-carboxamide], the “Nauc @ 1 μM” value was “+ (NAUC “+” refers to an observed NAUC <140% of positive control)”, the “Nauc @ 3 μM” value was “+ (NAUC “+” refers to an observed NAUC <140% of positive control)” and the “Nauc @ 10 μM” value was “+ (NAUC “+” refers to an observed NAUC <140% of positive control)”.
CN(C(=O)N1C(=O)C2(c3cc(Cl)cc(Cl)c31)C(C(=O)OCOC(=O)C(C)(C)C)CC1CC(F)(F)CN12)c1cc(Cl)cc(Cl)c1 (single isomer, unassigned) [Example 251b, (pivaloyloxy)methyl 5,7-dichloro-1-((3,5-dichlorophenyl)(methyl)carbamoyl)-6′,6′-difluoro-2-oxo-1′,2′,5′,6′,7′,7a′-hexahydrospiro[indoline-3,3′-pyrrolizine]-2′-carboxylate] was tested, and the “Nauc @ 10 μM” value was “+ (NAUC “+” refers to an observed NAUC <140% of positive control)”.
With CC(=O)OCOC(=O)[C@@H]1[C@@H](C(=O)N(C)c2cc(Cl)cc(Cl)c2)[C@H]2CC(F)(F)CN2[C@]12C(=O)Nc1c(Cl)cc(Cl)cc12 (single isomer, unassigned) [Example 256a] the “Nauc @ 10 μM” value was “+++ (NAUC “+++” refers to an observed NAUC>170% of positive control)”.
CC(=O)OCOC(=O)[C@H]1[C@@H](C(=O)N(C)c2cc(Cl)cc(Cl)c2)[C@H]2CC(F)(F)CN2[C@]12C(=O)Nc1c(Cl)cc(Cl)cc12 (single isomer, unassigned) [Example 256b] was tested, and the “Nauc @ 10 μM” value was “+ (NAUC “+” refers to an observed NAUC <140% of positive control)”.
With CN(C(=O)[C@H]1[C@@H](C(=O)O)[C@]2(C(=O)Nc3c(Cl)cc(Cl)cc32)N2CC(F)(F)C[C@@H]12)c1cc(Cl)cc(Cl)c1F (single isomer, unassigned) [Example 265a] the “Nauc @ 1 μM” value was “+ (NAUC “+” refers to an observed NAUC <140% of positive control)”, the “Nauc @ 3 μM” value was “+++ (NAUC “+++” refers to an observed NAUC>170% of positive control)” and the “Nauc @ 10 μM” value was “+++ (NAUC “+++” refers to an observed NAUC>170% of positive control)”.
